From PMC4042408 (ACS chemical biology, 2013)

How the values were obtained:
[1] = tested on: serine hydrolases; experiment: Competitive ABPP-MudPIT of brain and peripheral tissues; assay type: in vivo, mouse
[2] = target: T1, HSL (Mus musculus, UniProt P54310); experiment: Gel-based competitive ABPP; assay type: biochemical
T1 sequence (P54310 1-759): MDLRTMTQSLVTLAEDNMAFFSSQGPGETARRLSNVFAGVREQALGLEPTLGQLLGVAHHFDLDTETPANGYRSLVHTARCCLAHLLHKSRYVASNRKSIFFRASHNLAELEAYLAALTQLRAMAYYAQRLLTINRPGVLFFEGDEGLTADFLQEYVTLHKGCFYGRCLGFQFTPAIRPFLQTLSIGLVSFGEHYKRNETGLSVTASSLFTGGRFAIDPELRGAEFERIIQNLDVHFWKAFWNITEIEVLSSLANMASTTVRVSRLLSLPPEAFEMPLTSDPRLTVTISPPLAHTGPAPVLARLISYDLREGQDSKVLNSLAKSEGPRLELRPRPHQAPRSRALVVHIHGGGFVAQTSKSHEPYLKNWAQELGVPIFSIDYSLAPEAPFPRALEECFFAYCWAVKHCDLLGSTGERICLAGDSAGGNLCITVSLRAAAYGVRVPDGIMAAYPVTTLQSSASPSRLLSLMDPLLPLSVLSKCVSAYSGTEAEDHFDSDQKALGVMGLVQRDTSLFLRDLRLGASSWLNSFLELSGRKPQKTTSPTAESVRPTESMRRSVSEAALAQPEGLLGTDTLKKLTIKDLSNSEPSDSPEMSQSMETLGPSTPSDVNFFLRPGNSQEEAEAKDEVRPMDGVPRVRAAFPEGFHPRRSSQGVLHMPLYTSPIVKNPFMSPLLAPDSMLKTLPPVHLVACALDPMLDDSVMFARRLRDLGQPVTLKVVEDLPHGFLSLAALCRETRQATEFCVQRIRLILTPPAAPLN

[3] = target: T2, CES1 (Mus musculus, UniProt Q8VCC2); experiment: Gel-based competitive ABPP; assay type: biochemical
T2 sequence (Q8VCC2 19-565): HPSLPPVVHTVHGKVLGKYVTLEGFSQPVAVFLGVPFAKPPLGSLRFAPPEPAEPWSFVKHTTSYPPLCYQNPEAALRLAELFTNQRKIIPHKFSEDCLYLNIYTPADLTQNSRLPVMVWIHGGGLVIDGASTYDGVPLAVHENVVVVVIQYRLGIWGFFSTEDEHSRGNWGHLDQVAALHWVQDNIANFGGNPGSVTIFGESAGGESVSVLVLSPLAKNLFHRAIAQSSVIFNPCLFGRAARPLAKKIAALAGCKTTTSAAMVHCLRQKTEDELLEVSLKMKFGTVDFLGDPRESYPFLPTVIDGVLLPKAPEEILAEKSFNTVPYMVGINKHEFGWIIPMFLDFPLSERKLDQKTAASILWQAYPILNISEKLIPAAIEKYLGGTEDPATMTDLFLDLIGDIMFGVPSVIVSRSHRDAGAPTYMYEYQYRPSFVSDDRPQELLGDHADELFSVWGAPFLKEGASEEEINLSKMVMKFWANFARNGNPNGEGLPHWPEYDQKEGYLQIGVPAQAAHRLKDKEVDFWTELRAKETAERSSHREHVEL

[4] = target: CES2; experiment: Gel-based competitive ABPP; assay type: biochemical
[5] = target: T3, APEH (Mus musculus, UniProt Q8R146); experiment: Gel-based competitive ABPP; assay type: biochemical; details: mouse brain proteome
T3 sequence (Q8R146 1-732): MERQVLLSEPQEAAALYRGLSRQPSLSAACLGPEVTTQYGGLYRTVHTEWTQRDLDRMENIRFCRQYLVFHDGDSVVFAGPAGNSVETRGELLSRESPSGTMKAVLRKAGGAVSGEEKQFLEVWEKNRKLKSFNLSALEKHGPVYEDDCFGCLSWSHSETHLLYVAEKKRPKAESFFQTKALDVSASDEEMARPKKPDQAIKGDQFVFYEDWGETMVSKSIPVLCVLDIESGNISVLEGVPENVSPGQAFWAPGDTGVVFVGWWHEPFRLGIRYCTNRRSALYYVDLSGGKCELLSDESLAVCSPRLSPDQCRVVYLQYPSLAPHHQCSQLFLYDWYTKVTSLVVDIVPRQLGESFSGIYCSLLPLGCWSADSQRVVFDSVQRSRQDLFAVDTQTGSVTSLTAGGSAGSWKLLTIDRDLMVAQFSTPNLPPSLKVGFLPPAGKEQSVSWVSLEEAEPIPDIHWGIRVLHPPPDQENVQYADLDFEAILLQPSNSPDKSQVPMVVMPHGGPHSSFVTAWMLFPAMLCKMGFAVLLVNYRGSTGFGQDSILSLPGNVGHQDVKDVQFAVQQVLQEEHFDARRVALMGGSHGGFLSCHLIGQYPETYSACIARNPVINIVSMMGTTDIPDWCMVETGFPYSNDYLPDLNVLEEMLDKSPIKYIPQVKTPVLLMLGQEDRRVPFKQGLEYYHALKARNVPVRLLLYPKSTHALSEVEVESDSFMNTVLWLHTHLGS

[6] = target: T4, ABHD6 (Mus musculus, UniProt Q8R2Y0); experiment: Gel-based competitive ABPP; assay type: biochemical
T4 sequence (Q8R2Y0 1-336): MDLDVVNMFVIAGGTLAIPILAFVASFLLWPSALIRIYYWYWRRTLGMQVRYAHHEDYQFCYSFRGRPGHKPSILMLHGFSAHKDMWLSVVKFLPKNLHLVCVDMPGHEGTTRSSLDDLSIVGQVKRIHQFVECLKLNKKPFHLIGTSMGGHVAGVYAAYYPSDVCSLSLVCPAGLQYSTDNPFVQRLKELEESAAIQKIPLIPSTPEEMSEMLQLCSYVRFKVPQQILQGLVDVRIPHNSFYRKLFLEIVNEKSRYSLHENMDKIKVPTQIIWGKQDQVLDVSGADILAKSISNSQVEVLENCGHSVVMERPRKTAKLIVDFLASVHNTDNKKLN

[7] = target: T5, CES3 (Mus musculus, UniProt Q8VCT4); experiment: Gel-based competitive ABPP; assay type: biochemical
T5 sequence (Q8VCT4 19-565): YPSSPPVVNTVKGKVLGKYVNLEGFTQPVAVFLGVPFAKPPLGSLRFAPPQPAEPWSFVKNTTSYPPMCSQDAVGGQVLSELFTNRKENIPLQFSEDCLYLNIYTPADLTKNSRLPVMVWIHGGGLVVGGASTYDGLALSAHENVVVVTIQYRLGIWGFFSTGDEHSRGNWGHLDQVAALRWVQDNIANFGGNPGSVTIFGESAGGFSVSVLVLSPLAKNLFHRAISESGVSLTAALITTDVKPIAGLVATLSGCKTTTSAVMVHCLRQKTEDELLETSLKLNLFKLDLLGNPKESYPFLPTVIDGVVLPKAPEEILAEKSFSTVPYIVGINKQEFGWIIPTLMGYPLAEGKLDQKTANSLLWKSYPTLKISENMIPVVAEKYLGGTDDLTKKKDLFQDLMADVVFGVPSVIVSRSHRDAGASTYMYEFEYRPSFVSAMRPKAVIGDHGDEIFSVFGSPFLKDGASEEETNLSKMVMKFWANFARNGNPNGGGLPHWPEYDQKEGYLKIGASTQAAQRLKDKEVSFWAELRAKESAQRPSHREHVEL

[8] = target: T6, ABHD3 (Mus musculus, UniProt Q91ZH7); experiment: Gel-based competitive ABPP; assay type: biochemical
T6 sequence (Q91ZH7 1-411): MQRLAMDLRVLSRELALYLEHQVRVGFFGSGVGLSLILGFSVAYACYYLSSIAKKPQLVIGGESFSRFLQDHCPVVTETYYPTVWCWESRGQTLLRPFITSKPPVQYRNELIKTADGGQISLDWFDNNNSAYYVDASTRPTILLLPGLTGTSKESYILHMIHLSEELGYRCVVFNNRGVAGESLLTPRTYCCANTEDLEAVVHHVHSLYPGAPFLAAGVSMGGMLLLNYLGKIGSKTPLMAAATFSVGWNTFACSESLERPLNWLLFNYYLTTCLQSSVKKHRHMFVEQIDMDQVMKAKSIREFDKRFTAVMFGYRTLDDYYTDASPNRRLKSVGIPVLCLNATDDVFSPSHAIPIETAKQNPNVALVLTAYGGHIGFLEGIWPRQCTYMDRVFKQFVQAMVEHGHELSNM

[9] = target: T7, KIAA1363 (Mus musculus, UniProt Q8BLF1); experiment: Gel-based competitive ABPP; assay type: biochemical
T7 sequence (Q8BLF1 1-408): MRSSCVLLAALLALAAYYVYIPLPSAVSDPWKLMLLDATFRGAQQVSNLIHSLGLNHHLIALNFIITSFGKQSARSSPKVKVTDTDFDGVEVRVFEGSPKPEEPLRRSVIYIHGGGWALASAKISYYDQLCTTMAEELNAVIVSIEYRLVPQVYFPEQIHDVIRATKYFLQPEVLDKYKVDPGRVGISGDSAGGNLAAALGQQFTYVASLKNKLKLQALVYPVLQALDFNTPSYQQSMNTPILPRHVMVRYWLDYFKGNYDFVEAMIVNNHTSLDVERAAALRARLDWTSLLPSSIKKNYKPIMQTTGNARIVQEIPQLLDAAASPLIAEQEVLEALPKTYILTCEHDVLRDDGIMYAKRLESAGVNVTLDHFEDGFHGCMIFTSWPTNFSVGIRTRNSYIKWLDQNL

[10] = tested on: C20:4 LPA hydrolytic activity of mouse brain proteomes; assay type: biochemical; details: inhibitor 1 μM, 30 min, 37°C

CCOP(=S)(OCC)Oc1nc(Cl)c(Cl)cc1Cl [CPF, chlorpyrifos]
additional serine hydrolases not found in the brain (AADAC, CES1, CES1F, CES2, CES2B, CES2G, CES3, CES5, CES6, ES22, BChE) in peripheral tissues ([1]; CPF-treated mice, peripheral tissues): blocked
total number of metabolic serine hydrolases inhibited in vivo ([1]; mice, brain and peripheral tissues, CPF 50 mg/kg ip, 4 h): twenty-one

CCOP(=O)(OCC)Oc1nc(Cl)c(Cl)cc1Cl [CPO, chlorpyrifos-oxon]
IC50 compared to that of ACHE [2]: equivalent or lower
IC50 compared to that of ACHE [3]: equivalent or lower
IC50 compared to that of ACHE [4]: equivalent or lower
IC50 compared to that of ACHE [5]: equivalent or lower
IC50 compared to that of ACHE [6]: equivalent or lower
IC50 compared to that of ACHE [7]: comparable
IC50 compared to that of ACHE [8]: comparable
IC50 compared to that of ACHE [9]: comparable

O=C(Oc1ccc([N+](=O)[O-])cc1)N1CCC(C(O)(c2ccc3c(c2)OCO3)c2ccc3c(c2)OCO3)CC1 [JZL184]
C20:4 LPA hydrolytic activity (C20:4 FFA release) [10]: inhibits

O=C(Oc1ccc([N+](=O)[O-])cc1)N1CCN(Cc2cccc(Oc3ccccc3)c2)CC1 [JZL195]
C20:4 LPA hydrolytic activity (C20:4 FFA release) [10]: inhibits
